This assay concerns MV-4-11 cells. Briefly: Gene expression microarray analysis (Affymetrix PrimeView) and GSEA. As to conditions: ProbeSet 11747889_x_at; LIST B. On the set-up: RFU PODN (11730768_x_at) / Fold change /veh PODN (11730768_x_at) / RFU LINC00158 (11744669_a_at) / Fold change /veh LINC00158 (11744669_a_at) / RFU DUSP10 (11751237_a_at) / Fold change /veh DUSP10 (11751237_a_at) / RFU ID3 (11757404_x_at) / Fold change /veh ID3 (11757404_x_at) / RFU PLEKHG5 (11737974_s_at) / Fold change /veh PLEKHG5 (11737974_s_at) / RFU LRRC4B (11730491_at) / Fold change /veh LRRC4B (11730491_at) / RFU GIMAP4 (11747438_a_at) / Fold change /veh GIMAP4 (11747438_a_at) / RFU KRT8 (11758183_x_at) / Fold change /veh KRT8 (11758183_x_at) / RFU CNN1 (11734310_a_at) / Fold change /veh CNN1 (11734310_a_at) / RFU VPS37D (11726825_at) / Fold change /veh VPS37D (11726825_at) / RFU C10orf10 (11716522_x_at) / Fold change /veh C10orf10 (11716522_x_at) / RFU KIR2DL2 /// KIR2DL4 /// KIR2DL5A /// KIR2DL5B /// KIR2DS1 /// KIR2DS2 /// KIR2DS3 /// KIR2DS4 /// KIR3DL3 /// KIR3DL3 /// KIR3DS1 (11738374_at) / Fold change /veh KIR2DL2 /// KIR2DL4 /// KIR2DL5A /// KIR2DL5B /// KIR2DS1 /// KIR2DS2 /// KIR2DS3 /// KIR2DS4 /// KIR3DL3 /// KIR3DL3 /// KIR3DS1 (11738374_at) / RFU C1QL1 (11718748_at) / Fold change /veh C1QL1 (11718748_at) / RFU TMPRSS4 (11747572_a_at) / Fold change /veh TMPRSS4 (11747572_a_at) / RFU HAMP (11756126_x_at) / Fold change /veh HAMP (11756126_x_at) / RFU RNFT2 (11725882_a_at) / Fold change /veh RNFT2 (11725882_a_at) / RFU NR4A2 (11747474_a_at) / Fold change /veh NR4A2 (11747474_a_at) / RFU ABCC12 (11746883_a_at) / Fold change /veh ABCC12 (11746883_a_at) / RFU TMEM136 (11760407_x_at) / Fold change /veh TMEM136 (11760407_x_at) / RFU CLDN22 /// WWC2 (11732394_at) / Fold change /veh CLDN22 /// WWC2 (11732394_at) / RFU HLA-DPB1 (11760878_x_at) / Fold change /veh HLA-DPB1 (11760878_x_at) / RFU SPINT1 (11716480_a_at) / Fold change /veh SPINT1 (11716480_a_at) / RFU GAP43 (11754022_s_at) / Fold change /veh GAP43 (11754022_s_at) / RFU A4GNT (11735810_at) / Fold change /veh A4GNT (11735810_at) / RFU PRB3 (11715151_x_at) / Fold change /veh PRB3 (11715151_x_at) / RFU TUBB4B (11761932_at) / Fold change /veh TUBB4B (11761932_at) / RFU CAPN14 (11732068_a_at) / Fold change /veh CAPN14 (11732068_a_at) / RFU TMCC2 (11721928_a_at) / Fold change /veh TMCC2 (11721928_a_at) / RFU IRGQ (11745062_a_at) / Fold change /veh IRGQ (11745062_a_at) / RFU FAM174B (11720279_a_at) / Fold change /veh FAM174B (11720279_a_at) / RFU TMPRSS4 (11748680_a_at) / Fold change /veh TMPRSS4 (11748680_a_at) / RFU FAM212B (11763350_a_at) / Fold change /veh FAM212B (11763350_a_at) / RFU PLEKHG5 (11743358_a_at) / Fold change /veh PLEKHG5 (11743358_a_at) / RFU ZSCAN30 (11745921_a_at) / Fold change /veh ZSCAN30 (11745921_a_at) / RFU CMKLR1 (11741424_a_at) / Fold change /veh CMKLR1 (11741424_a_at) / RFU LOC101060620 /// MAPK8IP1 (11723275_at) / Fold change /veh LOC101060620 /// MAPK8IP1 (11723275_at) / RFU SPTSSB (11747773_x_at) / Fold change /veh SPTSSB (11747773_x_at) / RFU PRSS12 (11739890_at) / Fold change /veh PRSS12 (11739890_at) / RFU BIN1 (11741810_x_at) / Fold change /veh BIN1 (11741810_x_at) / RFU WNT11 (11732464_a_at) / Fold change /veh WNT11 (11732464_a_at) / RFU C10orf10 (11716521_a_at) / Fold change /veh C10orf10 (11716521_a_at) / RFU C5orf56 (11738089_at) / Fold change /veh C5orf56 (11738089_at) / RFU CYB561 (11721691_x_at) / Fold change /veh CYB561 (11721691_x_at) / RFU ANKRD19P (11752326_a_at) / Fold change /veh ANKRD19P (11752326_a_at) / RFU OR2T12 /// OR2T33 /// OR2T8 (11738714_s_at) / Fold change /veh OR2T12 /// OR2T33 /// OR2T8 (11738714_s_at) / RFU VCAN (11748164_a_at) / Fold change /veh VCAN (11748164_a_at) / RFU JSRP1 (11732532_at) / Fold change /veh JSRP1 (11732532_at) / RFU KRTAP10-11 (11738290_x_at) / Fold change /veh KRTAP10-11 (11738290_x_at) / RFU MYO3A (11730013_a_at) / Fold change /veh MYO3A (11730013_a_at) / RFU EBF3 (11725865_a_at) / Fold change /veh EBF3 (11725865_a_at) / RFU CAMK2N1 (11719241_x_at) / Fold change /veh CAMK2N1 (11719241_x_at) / RFU C5orf56 (11738088_a_at) / Fold change /veh C5orf56 (11738088_a_at) / RFU OLFML3 (11715873_a_at) / Fold change /veh OLFML3 (11715873_a_at) / RFU LOC100653217 /// NTM (11731650_a_at) / Fold change /veh LOC100653217 /// NTM (11731650_a_at) / RFU MAPK11 (11762145_a_at) / Fold change /veh MAPK11 (11762145_a_at) / RFU FIZ1 (11724087_x_at) / Fold change /veh FIZ1 (11724087_x_at) / RFU OASL (11726364_x_at) / Fold change /veh OASL (11726364_x_at) / RFU SOX15 (11748057_x_at) / Fold change /veh SOX15 (11748057_x_at) / RFU CD79A (11719716_a_at) / Fold change /veh CD79A (11719716_a_at) / RFU HIST1H1D (11736915_at) / Fold change /veh HIST1H1D (11736915_at) / RFU CASKIN2 (11723855_a_at) / Fold change /veh CASKIN2 (11723855_a_at) / RFU LOC730098 (11760151_x_at) / Fold change /veh LOC730098 (11760151_x_at) / RFU OR4N2 (11742367_at) / Fold change /veh OR4N2 (11742367_at) / RFU PRRT2 (11749266_a_at) / Fold change /veh PRRT2 (11749266_a_at) / RFU SNX32 (11753110_a_at) / Fold change /veh SNX32 (11753110_a_at) / RFU CDHR5 (11726645_a_at) / Fold change /veh CDHR5 (11726645_a_at) / RFU RCAN1 (11760418_a_at) / Fold change /veh RCAN1 (11760418_a_at) / RFU FAM167A (11723789_a_at) / Fold change /veh FAM167A (11723789_a_at) / RFU FAM26E (11764081_at) / Fold change /veh FAM26E (11764081_at) / RFU ISYNA1 (11749810_s_at) / Fold change /veh ISYNA1 (11749810_s_at) / RFU ACY1 (11761880_at) / Fold change /veh ACY1 (11761880_at) / RFU 11764098_at / Fold change /veh 11764098_at / RFU SAMD14 (11745864_x_at) / Fold change /veh SAMD14 (11745864_x_at) / RFU NPB (11741838_a_at) / Fold change /veh NPB (11741838_a_at) / RFU TMPRSS6 (11731388_a_at) / Fold change /veh TMPRSS6 (11731388_a_at) / RFU KRTAP10-2 (11738614_at) / Fold change /veh KRTAP10-2 (11738614_at) / RFU ARHGAP8 /// PRR5-ARHGAP8 (11727945_x_at) / Fold change /veh ARHGAP8 /// PRR5-ARHGAP8 (11727945_x_at) / RFU KRTAP5-7 /// NADSYN1 (11734609_at) / Fold change /veh KRTAP5-7 /// NADSYN1 (11734609_at) / RFU RASL12 (11751679_a_at) / Fold change /veh RASL12 (11751679_a_at) / RFU CDKN2B (11736163_a_at) / Fold change /veh CDKN2B (11736163_a_at) / RFU PRF1 (11729649_at) / Fold change /veh PRF1 (11729649_at) / RFU, ZNF638 /// ZNF638-IT1 / Fold change vs veh, ZNF638 /// ZNF638-IT1 / RFU, PANK3 / Fold change vs veh, PANK3 / RFU, SH3YL1 / Fold change vs veh, SH3YL1 / RFU, ZEB2 / Fold change vs veh, ZEB2 / RFU, NRIP1 / Fold change vs veh, NRIP1 / RFU, PTTG1IP / Fold change vs veh, PTTG1IP / RFU, CAPN2 / Fold change vs veh, CAPN2 / RFU, MED14 / Fold change vs veh, MED14 / RFU, SNORA58 / Fold change vs veh, SNORA58 / RFU, C1orf63 / Fold change vs veh, C1orf63 / RFU, LRRFIP1 / Fold change vs veh, LRRFIP1 / RFU, NDUFAF7 / Fold change vs veh, NDUFAF7 / RFU, SLC12A2 / Fold change vs veh, SLC12A2 / RFU, IBTK / Fold change vs veh, IBTK / RFU, ESF1 / Fold change vs veh, ESF1 / Fold change vs veh, TMEM50B / RFU, TAOK1 / Fold change vs veh, TAOK1 / RFU, ACBD3 / Fold change vs veh, ACBD3 / RFU, TMA16 / Fold change vs veh, TMA16 / RFU, RWDD3 / Fold change vs veh, RWDD3 / RFU, BCAT1 / Fold change vs veh, BCAT1 / RFU, EDEM3 / Fold change vs veh, EDEM3 / RFU, TMEM33 / Fold change vs veh, TMEM33 / RFU, WDR75 / Fold change vs veh, WDR75 / RFU, AHCTF1 / Fold change vs veh, AHCTF1 / RFU, TFRC / Fold change vs veh, TFRC / RFU, ZDHHC17 / Fold change vs veh, ZDHHC17 / RFU, NOM1 / Fold change vs veh, NOM1 / RFU, ARL8B / Fold change vs veh, ARL8B / RFU, ZBTB11 / Fold change vs veh, ZBTB11 / RFU, TAMM41 / Fold change vs veh, TAMM41 / RFU, KIAA1704 /// LOC100996395 / Fold change vs veh, KIAA1704 /// LOC100996395 / RFU, ING1 / Fold change vs veh, ING1 / RFU, TRMT61B / Fold change vs veh, TRMT61B / RFU, FUBP3 / Fold change vs veh, FUBP3 / RFU, TP53 / Fold change vs veh, TP53 / RFU, TNKS2 / Fold change vs veh, TNKS2 / RFU, ZFP14 / Fold change vs veh, ZFP14 / RFU, ACTR2 / Fold change vs veh, ACTR2 / RFU, PPP3R1 / Fold change vs veh, PPP3R1 / RFU, PIK3R1 / Fold change vs veh, PIK3R1 / RFU, HNRNPA1 / Fold change vs veh, HNRNPA1 / RFU, RNF170 / Fold change vs veh, RNF170 / RFU, ZNF28 / Fold change vs veh, ZNF28 / RFU, RNGTT / Fold change vs veh, RNGTT / RFU, OGT / Fold change vs veh, OGT / RFU, BRD1 / Fold change vs veh, BRD1 / RFU, MARS / Fold change vs veh, MARS / RFU, ZNF655 / Fold change vs veh, ZNF655 / RFU, FAHD1 / Fold change vs veh, FAHD1 / RFU, BDP1 / Fold change vs veh, BDP1 / RFU, LRRCC1 / Fold change vs veh, LRRCC1 / RFU, ARID1A / Fold change vs veh, ARID1A / RFU, ZNF146 / Fold change vs veh, ZNF146 / RFU, ZNF330 / Fold change vs veh, ZNF330 / RFU, GPN3 / Fold change vs veh, GPN3 / RFU, C9orf123 / Fold change vs veh, C9orf123 / RFU, N4BP2L2 / Fold change vs veh, N4BP2L2 / RFU, ARFIP1 / Fold change vs veh, ARFIP1 / RFU, FAM179B / Fold change vs veh, FAM179B / RFU, BCL10 / Fold change vs veh, BCL10 / RFU, UHRF1BP1L / Fold change vs veh, UHRF1BP1L / RFU, BET1 / Fold change vs veh, BET1 / RFU, CNOT2 / Fold change vs veh, CNOT2 / RFU, ZNF268 / Fold change vs veh, ZNF268 / Fold change vs veh, ZNF507 / RFU, DGCR2 / Fold change vs veh, DGCR2 / RFU, WDSUB1 / Fold change vs veh, WDSUB1 / Fold change vs veh, HSP90B1 /// MIR3652 / RFU, ADSS / Fold change vs veh, ADSS / RFU, GK / Fold change vs veh, GK / RFU, ZNF148 / Fold change vs veh, ZNF148 / RFU, TAF9 / Fold change vs veh, TAF9 / RFU, SLC1A5 / Fold change vs veh, SLC1A5 / RFU, SLMO2 / Fold change vs veh, SLMO2 / RFU, ABCC4 / Fold change vs veh, ABCC4 / RFU, LOC101060439 /// RAP1B / Fold change vs veh, LOC101060439 /// RAP1B / RFU, RFX7 / Fold change vs veh, RFX7 / RFU, GTPBP10 / Fold change vs veh, GTPBP10 / RFU, CNEP1R1 / Fold change vs veh, CNEP1R1 / RFU, BIVM-ERCC5 /// ERCC5 / Fold change vs veh, BIVM-ERCC5 /// ERCC5 / RFU, ILF3 / Fold change vs veh, ILF3 / RFU 11762660_at / Fold change /veh 11762660_at / RFU VCAN (11757783_s_at) / Fold change /veh VCAN (11757783_s_at) / RFU DDX43 (11728927_at) / Fold change /veh DDX43 (11728927_at) / RFU KRT8 (11758188_x_at) / Fold change /veh KRT8 (11758188_x_at) / RFU NKD1 (11759106_at) / Fold change /veh NKD1 (11759106_at) / RFU SRD5A1 (11742802_a_at) / Fold change /veh SRD5A1 (11742802_a_at) / RFU TPSAB1 /// TPSB2 (11721975_s_at) / Fold change /veh TPSAB1 /// TPSB2 (11721975_s_at) / RFU GSTM3 (11746129_a_at) / Fold change /veh GSTM3 (11746129_a_at) / RFU IL23R (11737362_x_at) / Fold change /veh IL23R (11737362_x_at) / RFU TMEM51 (11727254_a_at) / Fold change /veh TMEM51 (11727254_a_at) / RFU PIWIL2 (11732686_x_at) / Fold change /veh PIWIL2 (11732686_x_at) / RFU ORM1 (11744905_x_at) / Fold change /veh ORM1 (11744905_x_at) / RFU CCDC152 (11743942_at) / Fold change /veh CCDC152 (11743942_at) / RFU ECM1 (11717891_a_at) / Fold change /veh ECM1 (11717891_a_at) / RFU IL23R (11748794_a_at) / Fold change /veh IL23R (11748794_a_at) / RFU TNFAIP8L3 (11732012_x_at) / Fold change /veh TNFAIP8L3 (11732012_x_at) / RFU MBOAT4 (11741988_at) / Fold change /veh MBOAT4 (11741988_at) / RFU 11764193_at / Fold change /veh 11764193_at / RFU TMEM53 (11763286_at) / Fold change /veh TMEM53 (11763286_at) / RFU MAGEB2 (11727129_at) / Fold change /veh MAGEB2 (11727129_at) / RFU TMEM200A (11744735_a_at) / Fold change /veh TMEM200A (11744735_a_at) / RFU CCDC152 (11751479_a_at) / Fold change /veh CCDC152 (11751479_a_at) / RFU FAM211A (11726209_a_at) / Fold change /veh FAM211A (11726209_a_at) / RFU RGS16 (11746705_a_at) / Fold change /veh RGS16 (11746705_a_at) / RFU VCAN (11755009_s_at) / Fold change /veh VCAN (11755009_s_at) / RFU RHOB (11743442_s_at) / Fold change /veh RHOB (11743442_s_at) / RFU RGS16 (11720943_a_at) / Fold change /veh RGS16 (11720943_a_at) / RFU RGS16 (11720944_at) / Fold change /veh RGS16 (11720944_at) / RFU, VPS4B / Fold change vs veh, VPS4B / RFU, CREB1 / Fold change vs veh, CREB1 / RFU, DNAJC13 / Fold change vs veh, DNAJC13 / RFU, GNAQ / Fold change vs veh, GNAQ / RFU, CDK5R1 / Fold change vs veh, CDK5R1 / RFU, ZRANB3 / Fold change vs veh, ZRANB3 / RFU, CUL4A / Fold change vs veh, CUL4A / RFU, CCNY / Fold change vs veh, CCNY / RFU, UFL1 / Fold change vs veh, UFL1 / RFU, COG3 / Fold change vs veh, COG3 / RFU, DIAPH2 / Fold change vs veh, DIAPH2 / RFU, SKA2 / Fold change vs veh, SKA2 / RFU, AFF3 / Fold change vs veh, AFF3 / RFU, LMF1 / Fold change vs veh, LMF1 / RFU, IPO11 / Fold change vs veh, IPO11 / RFU, DFFB / Fold change vs veh, DFFB / RFU, FOXP1 / Fold change vs veh, FOXP1 / RFU, CARD8 / Fold change vs veh, CARD8 / RFU, STRN3 / Fold change vs veh, STRN3 / RFU, ADK / Fold change vs veh, ADK / RFU, RASSF2 / Fold change vs veh, RASSF2 / RFU, WIPF1 / Fold change vs veh, WIPF1 / RFU, LARP1B / Fold change vs veh, LARP1B / RFU, RASA1 / Fold change vs veh, RASA1 / RFU, RB1 / Fold change vs veh, RB1 / RFU, PPFIA1 / Fold change vs veh, PPFIA1 / RFU, MAT2A / Fold change vs veh, MAT2A / RFU, CCT5 / Fold change vs veh, CCT5 / RFU, WDR92 / Fold change vs veh, WDR92 / RFU, CUX1 / Fold change vs veh, CUX1 / RFU, TTC7A / Fold change vs veh, TTC7A / RFU, TMEM135 / Fold change vs veh, TMEM135 / RFU, DEPTOR / Fold change vs veh, DEPTOR / RFU, CPM / Fold change vs veh, CPM / RFU, DNAJB6 / Fold change vs veh, DNAJB6 / RFU, CACNA2D3 / Fold change vs veh, CACNA2D3 / RFU, DTX4 / Fold change vs veh, DTX4 / RFU, TFCP2 / Fold change vs veh, TFCP2 / RFU, GMCL1 /// GMCL1P1 / Fold change vs veh, GMCL1 /// GMCL1P1 / RFU, AEBP2 / Fold change vs veh, AEBP2 / RFU, SNHG1 /// SNORD22 /// SNORD25 /// SNORD26 /// SNORD27 /// SNORD28 /// SNORD29 /// SNORD31 / Fold change vs veh, SNHG1 /// SNORD22 /// SNORD25 /// SNORD26 /// SNORD27 /// SNORD28 /// SNORD29 /// SNORD31 / Fold change (Aza/veh), C12orf56 (ProbeSet 11735607_a_at) / Fold change (ACY-1035/veh), C12orf56 (ProbeSet 11735607_a_at) / Fold change (Aza/veh), FGFR1OP (ProbeSet 11751329_s_at) / Fold change (ACY-1035/veh), FGFR1OP (ProbeSet 11751329_s_at) / Fold change (Aza/veh), VPS36 (ProbeSet 11739960_a_at) / Fold change (ACY-1035/veh), VPS36 (ProbeSet 11739960_a_at) / RFU SYPL1 (11715823_x_at) / Fold change /veh SYPL1 (11715823_x_at) / RFU IGFBP7 (11715501_s_at) / Fold change /veh IGFBP7 (11715501_s_at) / RFU REEP3 (11722064_at) / Fold change /veh REEP3 (11722064_at) / RFU IGLL1 (11728026_x_at) / Fold change /veh IGLL1 (11728026_x_at): dose or concentration left out as unconfirmed. In kind it is cell-based, human.

For `Nc1ccc(-c2cccs2)cc1NC(=O)c1ccc2c(c1)cc(C1CC1)n2CCN1CCOCC1` [ACY-1035], the “Fold change vs veh, SH3YL1” value was 0.99.

The values above are taken from PMC5218480 (PLoS ONE, 2017).
